Results reported in patent publication US9701670B2, “Pyrazolyl-ureas as kinase inhibitors” (RESPIVERT LIMITED, priority 2013, dated 2017).

What was measured:
[1] = Pharmacokinetics, plasma and total colon tissue distribution in rats; type: in vivo, male Wistar rats; conditions: Rat
Method: A study was conducted by Sai Life Sciences (Hinjewadi, Pune, India) to investigate the pharmacokinetics, as well as plasma and total colon tissue distribution of the compound of Example 77 in male Wistar rats following a single intravenous or oral administration.
30 male Wistar rats were divided into two groups: Group I (p.o.: 5 mg/kg; 27 rats) and Group II (i.v.: 0.25 mg/kg; 3 rats). Animals in Group I were administered orally with an aqueous suspension formulation (having 2% HPMC and 0.5% Tween 80) of the compound of Example 77, at a dose of 5 mg/kg. Animals in Group II were administered intravenously with a solution formulation (in 5% v/v DMSO, 7.5% w/v Solutol HS 15 and 87.5% saline (0.9% w/v NaCl)) of the compound of Example 77 at a dose of 0.25 mg/kg. From each rat, blood samples (approximately 120 μL) were collected from retro orbital plexus such that samples were obtained at pre-dose, 0.05, 0.13, 0.25, 0.5, 1, 2, 4, 8, and 24 hr (i.v.) and pre-dose, 0.5, 1, 2, 4, 6, 8, 12 and 24 hr (p.o.). Immediately after collection, plasma was harvested from blood by centrifugation and stored at −70° C. until analysis. Following collection of blood sample, the animals (Group I) were humanely euthanized by carbon dioxide asphyxiation. The total colon was isolated, flushed with cold phosphate buffer saline (pH 7.4) to remove contents and weighed. The total colon tissues homogenized with ice-cold phosphate buffered saline, pH 7.4. Buffer volume to be used for homogenization was twice the weight of tissue. All the samples were stored below −70° C. until bioanalysis. Total colon tissue homogenate volume was three times. Plasma and total colon tissue samples were quantified by LC-MS/MS method (LLOQ in plasma and total colon tissue=0.5 ng/mL)

BDF1 mice = experiment: (C) TNBS-induced colitis in mice; type: in vivo, mouse; parameters: TNBS Ulcer grade / TNBS LP inflammation: scale not given here; conditions: 2 days; for TNBS LP inflammation / TNBS Ulcer grade: mice
Method: Non-fasted, 10-12 week old, male BDF1 mice are dosed by oral gavage twice daily with either vehicle (5 mL/kg), reference item (Budesonide 2.5 mg/kg) or test compound (1, 5 or 50 mg/kg) one day before (Day −1) stimulation of the inflammatory response by treatment with 2,4,6-trinitrobenzenesulphonic acid (TNBS) (15 mg/mL in 50% ethanol/50% saline). On Day 0 of the study TNBS (200 μL) is administered intra-colonically via a plastic catheter followed by BID dosing of the vehicle, reference or test compound for 2 or 4 days. During the study animals are weighed every day and stool observations are made and recorded as a score, based on stool consistency. At the time of sacrifice on Day 2 (or Day 4) the large intestine is removed and the length and weight recorded. Sections of the colon are taken for either MPO analysis to determine neutrophil infiltration or for histopathology involving scoring to determine disease severity.

[2] = Hepatic microsomal stability; type: in vitro ADME, human
Method: • Microsomal stability assays were performed with incubations of test compounds at 0.1 μM (n=2, final DMSO concentration 0.25%), and carried out using pooled human, dog and rat hepatic microsomes from Xenotech (Lots 1210153, 0810143 and 1110042, respectively) at 0.25 mg protein/mL in the presence of co-factor, NADPH. The incubations were performed at 37° C. with 100 μL aliquots taken from the incubation, at 0, 2, 5, 10 and 20 minutes and reactions terminated by addition of 100 μL of acetonitrile containing carbamazepine as analytical internal standard. […] Half-life values were calculated from the relationship T1/2(min)=−0.693/λ • where λ was the slope of the Ln concentration vs time curve. • The in vitro intrinsic clearance, CIint (mL/min/kg), was calculated and scaled to hepatic extraction ratios using the following scaling parameters and formulae.
Formulae CIint(tissue clearance) mL/min/kg=[0.693/t½(min)]×[1/microsomal protein concentration mg/mL]×[mg microsomes/g liver]×[g liver/kg body weight] […] The incubations were performed at 37° C. with 100 μL samples taken from the incubation, at 0, 10, 20, 45 and 90 minutes, and reactions terminated by addition of 100 μL of acetonitrile containing carbamazepine as analytical internal standard. […] Half-life values were calculated from the relationship T1/2(min)=−0.693/λ • where λ was the slope of the Ln concentration vs time curve. • Standard compounds testosterone, midazolam and 4-methylumbelliferone are included in the assay design.

B-Raf = B-Raf (Homo sapiens (Human), UniProt P15056); experiment: Enzyme binding assay (Kinomescan)
B-Raf, sequence (P15056 whole entry): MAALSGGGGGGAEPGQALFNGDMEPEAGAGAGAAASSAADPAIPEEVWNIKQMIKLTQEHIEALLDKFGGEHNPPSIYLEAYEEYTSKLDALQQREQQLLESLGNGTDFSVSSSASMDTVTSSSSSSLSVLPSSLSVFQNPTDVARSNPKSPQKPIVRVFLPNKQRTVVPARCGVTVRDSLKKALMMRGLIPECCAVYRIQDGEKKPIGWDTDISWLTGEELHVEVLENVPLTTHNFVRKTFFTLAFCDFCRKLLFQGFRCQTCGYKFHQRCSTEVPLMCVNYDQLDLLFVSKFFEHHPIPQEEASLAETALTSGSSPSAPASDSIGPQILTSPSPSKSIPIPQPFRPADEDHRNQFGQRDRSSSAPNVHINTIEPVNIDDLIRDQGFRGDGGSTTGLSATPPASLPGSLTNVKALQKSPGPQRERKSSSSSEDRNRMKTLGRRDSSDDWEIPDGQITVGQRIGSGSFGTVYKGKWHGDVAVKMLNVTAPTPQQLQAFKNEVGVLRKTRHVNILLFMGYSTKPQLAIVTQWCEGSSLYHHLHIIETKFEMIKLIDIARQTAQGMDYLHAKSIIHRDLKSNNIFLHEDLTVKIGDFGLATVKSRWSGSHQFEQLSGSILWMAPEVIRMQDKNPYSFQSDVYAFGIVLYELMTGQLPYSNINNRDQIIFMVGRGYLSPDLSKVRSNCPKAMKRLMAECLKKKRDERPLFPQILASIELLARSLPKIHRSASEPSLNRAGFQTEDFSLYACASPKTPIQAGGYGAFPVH
Method: The kinase enzyme binding activities of compounds disclosed herein were determined using a proprietary assay which measures active site-directed competition binding to an immobilized ligand (Fabian, M. A. et al., Nature Biotechnol., 2005, 23:329-336). These assays were conducted by DiscoverX (formerly Ambit; San Diego, Calif.). The percentage inhibition produced by incubation with a test compound is calculated relative to the non-inhibited control.

[3] = male, Wistar, plasma, intravenous 0.25 mg/kg
[4] = male, Wistar, po, 5 mg/kg p.o., Plasma
[5] = male, Wistar, total colon tissue, po, 5 mg/kg p.o., Total colon

SMILES: C#Cc1cc(Nc2nccc(Oc3ccc(NC(=O)Nc4cc(C(C)(C)C)nn4-c4ccc(OC)cc4)c4ccccc34)n2)cc(C(=O)NCCN2CCOCC2)c1 [Example 77, 3-((4-((4-(3-(3-(tert-Butyl)-1-(4-methoxyphenyl)-1H-pyrazol-5-yl)ureido)-naphthalen-1-yl)oxy)pyrimidin-2-yl)amino)-5-ethynyl-N-(2-morpholinoethyl)benzamide]
- Fpo ([1]; 5 mg/kg p.o., Plasma): 0.1%
- AUC(0-inf) [1, 3]: 1190 ng·h/mL
- AUC(0-t) [1, 3]: 1180 ng·h/mL
- C0 [1, 3]: 4030 ng/mL
- Vd [1, 3]: 0.1 L/kg
- clearance [1, 3]: 3.5 mL/min/kg
- half-life [1, 3]: 48 min
- AUC(0-inf) [1, 4]: 17.5 ng·h/mL
- AUC(0-t) [1, 4]: 17.5 ng·h/mL
- Cmax [1, 4]: 2.5 ng/mL
- Tmax [1, 4]: 6 h
- AUC(0-inf) [1, 5]: 20700 ng·h/mL
- AUC(0-t) [1, 5]: 20500 ng·h/mL
- Cmax [1, 5]: 2500 ng/mL
- Tmax [1, 5]: 4 h
- histopathology analysis, in vivo model of colonic inflammation (BDF1 mice; TNBS-induced colitis, dosed orally at 5 mg/kg): significant activity
- TNBS LP inflammation (BDF1 mice; 1 mg/kg oral BID): 2.4 ± 0.3
- TNBS Ulcer grade (BDF1 mice; 1 mg/kg oral BID): 3.1 ± 0.5
- TNBS LP inflammation (BDF1 mice; 5 mg/kg oral BID): 2.1 ± 0.3
- TNBS Ulcer grade (BDF1 mice; 5 mg/kg oral BID): 2.4 ± 0.5
- hepatic clearance ([2]; conclusion from Tables 9a and 9b (hepatic microsomes and hepatocytes)): high hepatic clearance
- Mean hepatic extraction ratio (Eh) ([2]; human hepatic microsomes, scaled from intrinsic clearance, mean of two experiments): 0.94
- effect on the binding of the kinase B-Raf to its standard ligand (B-Raf): did not have any effect
